Reference: ChEMBL document CHEMBL1130632, “Polycyclic aromatic compounds as anticancer agents: synthesis and biological evaluation of some chrysene derivatives” (Bioorg Med Chem Lett, 1998)
In brackets after ≈: the same amount, converted by molar mass.

Legend:
Assay type in all cases: functional, cell-based
P388 = experiment: Compound was evaluated for the growth inhibition of p388/0 leukemia cell line.; settings: Mus musculus
HT-29 = experiment: Compound was evaluated for the growth inhibition of HT-29 colon cell line.; settings: Homo sapiens
BRO melanoma cell line = experiment: Compound was evaluated for the growth inhibition of BRO melanoma cell line.; settings: Homo sapiens
SK-MEL-2 = experiment: Compound was evaluated for the growth inhibition of […] melanoma cell line.; settings: Homo sapiens
MCF7 = experiment: Compound was evaluated for the growth inhibition of MCF-7 breast cell line.; settings: Homo sapiens

Structure (SMILES) | IC50 (P388) | IC50 (HT-29) | IC50 (BRO melanoma cell line) | IC50 (SK-MEL-2) | IC50 (MCF7)
O=C(CCC(=O)N1CCCCC1)Nc1cc2c3ccccc3ccc2c2ccccc12 | 12.2 µg/mL (≈ 29.7 µM) | 10.1 µg/mL (≈ 24.6 µM) | 15 µg/mL (≈ 36.5 µM) | 15.9 µg/mL (≈ 38.7 µM) | 11.5 µg/mL (≈ 28 µM)
CN1CCN(C(=O)CCC(=O)Nc2cc3c4ccccc4ccc3c3ccccc23)CC1 | 9.8 µg/mL (≈ 23 µM) | 6.6 µg/mL (≈ 15.5 µM) | 11.8 µg/mL (≈ 27.7 µM) | 10 µg/mL (≈ 23.5 µM) | 11.2 µg/mL (≈ 26.3 µM)
COc1cccc2c1C(=O)c1c(O)c3c(c(O)c1C2=O)C[C@@](O)(C(=O)CO)C[C@@H]3O[C@H]1C[C@H](N)[C@H](O)[C@H](C)O1 [DOXORUBICIN] | 0.8 µg/mL (≈ 1.47 µM) | 0.5 µg/mL (≈ 0.92 µM) | 0.2 µg/mL (≈ 0.368 µM) | 0.1 µg/mL (≈ 0.184 µM) | 0.4 µg/mL (≈ 0.736 µM)

Second part, the compound after the results:

IC50 (P388) | IC50 (HT-29) | IC50 (BRO melanoma cell line) | IC50 (SK-MEL-2) | IC50 (MCF7) | Structure (SMILES)
7.9 µg/mL (≈ 18.6 µM) | 4.8 µg/mL (≈ 11.3 µM) | 9.5 µg/mL (≈ 22.3 µM) | 9.2 µg/mL (≈ 21.6 µM) | 9.8 µg/mL (≈ 23 µM) | CN1CCN(C(=O)CCC(=O)Nc2ccc3c(ccc4c5ccccc5ccc34)c2)CC1
10.5 µg/mL (≈ 25.6 µM) | 8.5 µg/mL (≈ 20.7 µM) | 17.3 µg/mL (≈ 42.1 µM) | 13.3 µg/mL (≈ 32.4 µM) | 10.2 µg/mL (≈ 24.8 µM) | O=C(CCC(=O)N1CCCCC1)Nc1ccc2c(ccc3c4ccccc4ccc23)c1
2.2 µg/mL (≈ 5.75 µM) | 2.3 µg/mL (≈ 6.01 µM) | 4.5 µg/mL (≈ 11.8 µM) | 3.8 µg/mL (≈ 9.93 µM) | 3 µg/mL (≈ 7.84 µM) | c1ccc2c(c1)ccc1c3ccc(NCCCCN4CCCCC4)cc3ccc21
4.7 µg/mL (≈ 11.8 µM) | 9.3 µg/mL (≈ 23.4 µM) | 8.8 µg/mL (≈ 22.1 µM) | 8.7 µg/mL (≈ 21.9 µM) | 12.1 µg/mL (≈ 30.4 µM) | CN1CCN(CCCCNc2ccc3c(ccc4c5ccccc5ccc34)c2)CC1
